# Laboratory results reported in patent US5420132A, “Substituted benzodioxins” (Adir et Compagnie, priority 1993, dated 1995).
# Tests used:
# [1] = tested on: Human red blood corpuscles; assay: Measurement of haemolysis induced by AAPH; type: cell-based; conditions: Erythrocyte, 0.5 h, 10^-5 M, 30 minutes at 37° C.
# Description: Measurement of haemolysis induced by AAPH
# Human red blood corpuscles are placed for a period of 30 minutes at 37° C. in the presence of AAPH, which generates free radicals at a constant rate, and in the presence or absence of the compounds being studied. The optical density of the supernatant is measured at 403 nm compared with the control without AAPH. The percentage inhibition of haemolysis is calculated by comparison with the 100% haemolysis obtained for the AAPH control.
# [2] = Antihypoxic activity in vivo (time until first gasps); set-up: species or system mice (Swiss CD 1); conditions: 30 minutes before hypoxia, control 36 ± 4
# Description: Male mice (Swiss CD 1 ) weighing from 25 to 30 g are, before any experiment, housed for one week under conditions customary for animals (20°-22° C., 55% humidity, light/darkness cycle 12/12, commercial feed and water as desired). The mice are placed in a box (7×5×5 cm) in which an atmosphere poor in oxygen is created by passing through a stream of air (96% N2, 4% O2, 12 l/min). The time taken until the first signs of suffocation (or "gasps") occur is measured. The mice receive a dose of the compounds to be tested by the intraperitoneal route 30 minutes before the hypoxia is induced. Vincamine is used as the reference drug.
# native human LDLs = assay: Protective activity against LDL oxidation (electrophoretic method, FPLC, Cu2+ induced); type: biochemical; conditions: 10 μM; with Cu++; 24 hours
# Description: Study of the protective activity against LDL oxidation (electrophoretic method)
# The capacity of the compounds of the invention to decrease the proportions of oxidised LDLs was measured by incubating a preparation comprising native human LDLs, a Cu^2+ free radical generator, and the compounds to be tested for 24 hours. The oxidation products are determined by FPLC (Fast Protein Liquid Chromatography) in accordance with the method described by B. Vedie et al., Journal of Lipid Research, 32, 1359-1369, (1991). By that method it was possible to identify 5 peaks corresponding to different degrees of LDL oxidation. Peaks A and B correspond to the native forms of LDL and peaks C, D and E correspond to the different states of oxidation of the LDLs (peak E corresponding to the most oxidised form). The results are expressed as a percentage of the LDLs corresponding to those different states of oxidation.
# thoracic aorta of rats = assay: Anticalcic activity (contraction induced by potassium chloride); set-up: species or system male Wistar rats; conditions: Rattus norvegicus; 60 mM KCl; 2 preparations, 8 concentrations; read-out: IC50, inhibition of thoracic aorta contraction induced by potassium chloride
# Description: The anticalcic activity was studied in the thoracic aorta of male Wistar rats. Once they have been introduced into experimental vessels containing a physiological solution, the vascular rings are subjected to an initial tension of 2 g. The preparations are then placed in the presence of a hyperpotassic solution (60 mM of potassium chloride) in order to obtain a sustained contractile response. Increasing concentrations of the product being tested are then added for the period necessary to obtain a stable effect.
# Each compound of the invention is thus tested in 2 preparations at 8 concentrations (10^-8 M to 3×10^-5 M) to obtain a concentration-effect curve and determine the IC50.
# [3] = Hypolipaemic activity in hypercholesterolaemic mice; type: in vivo; conditions: 100 mg/kg p.o.; serum
# Description: Groups each comprising 6 mice are rendered hypercholesterolaemic by a diet that is high in cholesterol and in cholic acid for 7 days. The compounds of the invention are administered p.o. (100 mg/kg) on the 6th and 7th day (half the dose being administered on day 6 and the other half on day 7). The animals are then left without food and drink for one night. The reduction in the concentration of cholesterol in the serum compared with hypercholesterolaemic control mice is then evaluated, as is also the reduction in concentration of lipoproteins (corresponding to the LDL-VLDL fractions), after precipitation by the addition of heparin to the serum, in the same hypercholesterolaemic mice compared with the control animals.
# 5-HT2 receptors = assay: Serotoninergic activity (competition with [3H]ketanserine); type: binding, rat (male Wistar, cerebral cortex membranes); conditions: 10 μM (n=3); [3H]ketanserine 0.5 nM, 40 min/25° C.
# Description: The experiments are carried out on membranes prepared from the cerebral cortex of male Wistar rats (CERJ, le Genest St Isle). The binding measurements are carded out using ketanserine as reference compound. The conditions of the experiment are summarised below:
# After incubation, the membranes are quickly filtered. The filtrates are then transferred to flasks containing scintillation liquid and the bound radioactivity is determined by a liquid scintillation counter (LS6000, Beckman). The affinity of the compounds of the invention for the 5-HT2 receptors is evaluated, at the concentration 10 μM (n=3), using competition experiments.
# lipoxygenase = assay: Measurement of lipoxygenase activities (B4 leukotriene release, calcium ionophore A 23 187); type: cell-based; conditions: 10 μM; rabbit granulocytes; average of 3
# Description: Measurement of lipoxygenase activities The measurements are carried out on rabbit granulocytes. The isolated granulocytes are stimulated in vitro by the calcium ionophore A 23 187. The B4 leukotrienes released in the extracellular medium are measured by Radio Immuno Assay (RIA). The results (average of 3 independent measurements) are expressed as a percentage inhibition compared with the control.
# [4] = tested on: platelet aggregation (rabbit plasma rich in platelets); assay: Measurement of antiaggregation activity (sodium arachidonate induced); type: cell-based; conditions: Oryctolagus cuniculus, sodium arachidonate (50 μ/ml), read-out: Minimum active concentration, inhibition of maximum non-reversible platelet aggregation
# Description: Measurement of antiaggregation activity
# In that study, the compounds of the invention (100 μ/ml) were tested with the aim of quantifying their ability to inhibit the maximum non-reversible platelet aggregation (rabbit plasma rich in platelets) induced by sodium arachidonate (50 μ/ml). Thus the minimum active concentration for the compound of Example 1 is 20 μM.
structure (smiles),measurement,setting,value
"O=C(Nc1ccccc1)C1COc2ccc(O)cc2O1 (centres unmarked) [Example 12, 7-HYDROXY-2-ANILINOCARBONYL-2,3-DIHYDRO-1,4-BENZOP DIOXIN]",inhibition at 10 µM,[1],100%
"CC[C@]12CCCN3CCc4c(n(c5ccccc45)[C@@](O)(C(=O)OC)C1)[C@@H]32 [Vincamine, reference compound]",Time until the first gasps occur,[2]; 20 mg/kg i.p.,147 ± 14 s
same,Time until the first gasps occur,"[2]; 2,5 mg/kg i.p.",inactive
"O=C(C1=COc2ccc(O)cc2O1)N1CCN(C(c2ccc(F)cc2)c2ccc(F)cc2)CC1 [Example 2, 7-HYDROXY-2-{4-[BIS(4-FLUOROPHENYL)METHYL]PIPERAZIN-1-YLCARBONYL}-1,4-BENZODIOXIN]",inhibition at 10 µM,[1],100%
"CC(C)(Sc1cc(C(C)(C)C)c(O)c(C(C)(C)C)c1)Sc1cc(C(C)(C)C)c(O)c(C(C)(C)C)c1 [probucol, reference compound]","LDL oxidised form D separated by FPLC, percentage of LDLs",native human LDLs,80%
same,"LDL oxidised form E (most oxidised) separated by FPLC, percentage of LDLs",native human LDLs,20%
"O=C(Nc1ccccc1)C1COc2cc(O)ccc2O1 (centres unmarked) [Example 11, 6-HYDROXY-2-ANILINOCARBONYL-2,3-DIHYDRO-1,4-BENZODIOXIN]",inhibition at 10 µM,[1],100%
"Oc1ccc2c(c1)OC=C(CN1CCN(C(c3ccc(F)cc3)c3ccc(F)cc3)CC1)O2 [Example 58, 6-HYDROXY-2-{4-[BIS-(4-FLUOROPHENYL)METHYL]PIPERAZIN-1- YLMETHYL}-1,4-BENZODIOXIN]",IC50,thoracic aorta of rats,600 nM
same,Reduction in the LDL-VLDL fraction,[3],35%
same,Reduction in the total cholesterol,[3],33%
same,"Inhibiting activity, 5-HT2 receptor binding",5-HT2 receptors,79%
"COc1ccc(CN2CCN(C(=O)C3COc4ccc(O)cc4O3)CC2)c(OC)c1OC (centres unmarked) [Example 17, 7-HYDROXY-2-[4-(2,3,4-TRIMETHOXYBENZYL)PIPERAZIN-1-YLCARBONYL]-2,3-DIHYDRO- 1,4-BENZODIOXIN]",inhibition at 10 µM,[1],100%
"O=C(Nc1ccccc1)C1=COc2cc(O)ccc2O1 [Example 10, 6-HYDROXY-2-ANILINOCARBONYL-1,4-BENZODIOXIN]",inhibition at 10 µM,[1],100%
same,Time until the first gasps occur,"[2]; 2,5 mg/kg i.p.",97 s
"O=C(C1=COc2cc(O)ccc2O1)N1CCN(C(c2ccc(F)cc2)c2ccc(F)cc2)CC1 [Example 1, 6-HYDROXY-2-{4-[BIS(4-FLUOROPHENYL)METHYL]PIPERAZIN-1-YLCARBONYL}-1,4-BENZODIOXIN]",IC50,thoracic aorta of rats,500 nM
same,inhibition at 10 µM,[1],62%
same,Inhibiting activity (B4 leukotriene release),lipoxygenase,62%
same,minimal effective concentration,[4],20 µM
same,"LDL form B separated by FPLC (native form), percentage of LDLs",native human LDLs,95%
same,"LDL oxidised form C separated by FPLC, percentage of LDLs",native human LDLs,5%
same,Time until the first gasps occur,"[2]; 2,5 mg/kg i.p.",108 s
"O=C(Nc1ccccc1)C1=COc2ccc(O)cc2O1 [Example 13, 7-HYDROXY-2-ANILINOCARBONYL-1,4-BENZODIOXIN]",inhibition at 10 µM,[1],100%
"O=C(C1COc2cc(O)ccc2O1)N1CCN(C(c2ccc(F)cc2)c2ccc(F)cc2)CC1 (centres unmarked) [Example 3, 6-HYDROXY-2-{4-[BIS(4-FLUOROPHENYL)METHYL]PIPERAZIN -1-YLCARBONYL}-2,3-DIHYDRO-1,4-BENZODIOXIN]",inhibition at 10 µM,[1],88%
